The text below walks through data of patent US9745305B2, “Modulators of methyl modifying enzymes, compositions and uses thereof” (Constellation Pharmaceuticals, Inc., priority 2013, dated 2017).

For one test, the target named is Y641N EZH2 (Homo sapiens, UniProt Q15910, Y641N). The test can be described thus: Assay for Y641N EZH2 (as the EZH2 assay, H3K27Me2 oligonucleosomes as substrate). The note with it: Y641N EZH2 mutant, reconstituted H3K27Me2 oligonucleosomes as substrate. It is filed as biochemical. The method, boiled down:
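rPRC2 (2 nM EZH2) with 0.2 μM reconstituted H3K27Me2 biotinylated oligonucleosomes, 3.6 μM H3K27me3 peptide, 0.2 μM ^3H SAM in Tris pH 8.5; compounds (80 to 0.16 μM, 2-fold) pre-incubated 20 min, reaction 60 min, SAH/EDTA quench. Tritiated product captured on streptavidin plates, scintillation counted; IC50 from 4-parameter fit.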

The test system of test [1] is H3K27me3 mark in Hela cells expressing wild type EZH2. The test can be described thus: H3K27me3 MSD Hela Assay. It counts as cell-based. To be noted: Homo sapiens, HeLa, 96 h, read-out: H3K27me3_MSD_HeLa (EC50). How it is done: H3K27me3 MSD Hela Assay. Trypsinized HeLa cells were counted and diluted in 10% DMEM (Life Technologies, Cat. #10569) to 5000 cells/75 μL. Seventy-five μL of cells were place in each well of a 96-well flat-bottomed plate and incubated at 37° C. for 4 hours. Twenty-five μL of test compound (at various concentrations) was added to the cells and incubation continued at 37° C. for 96 hours. Media was then removed and the cells rinsed once with ice cold PBS. Forty μL of ice-cold MSD Buffer AT (10 mM HEPES, pH 7.9, 5 mM MgCl2, 0.25M sucrose, Benzonase (1:10000), 1% Triton X-100 supplemented with fresh 1× Protease Inhibitor cocktail and 1 mM 4-(2-Aminoethyl)benzenesulfonyl fluoride hydrochloride (AEBSF)) was added to each well and the plates placed on ice for 30 minutes. Ten μL of 5M NaCl was then added to each well and incubation on ice continued for another 15 minutes. The material in each well was suspended pipetting up and down and then transferred to a new 96 well plate. The emptied wells were rinsed with 150 uL ice-cold 20 mM Tris pH 7.5, 1 mM EDTA, 1 mM EGTA, supplemented with fresh 1× Protease Inhibitor cocktail and 1 mM AEBSF (“NO salt NO detergent buffer) and transferred to the respective wells in the new plate. Three hundred μL of NO Salt NO detergent buffer was then added to each well of lysates and the plates frozen at −80° C.
On the same day, an appropriate number of MSD standard bind 96-well plates were coated with 30 μL/well of total H3 capture antibody (Millipore, Cat # MAB3422) at 1 μg/mL concentration in PBS. The antibody solution was evenly distributed first by tapping gently on the sides of the plates and then by shaking the plates for a few minutes at 1000 rpm. Antibody coated plates were stored at 4° C. overnight.
The next day the lysates are thawed to RT. The antibody coated MSD plates are washed 3× with TBS-T (Tris-buffered saline (Fisher Scientific, Cat #BP2471-1)+0.2% Tween-20). One-hundred fifty μL of 5% Blocker A in TBS-T is added to each well. The wells are covered and shaken on a shaker at RT for one hour. The Blocker A step is repeated a second time. After removing the blocker, 25 μL of cell lysate is transferred into each antibody coated well. The plates are shaken for 2 hours at RT, the lysate removed and the plates again washed with Blocker A in TBS-T. Twenty-five μL of appropriate freshly prepared antibody mix (including both primary and secondary antibodies) is added to each well and the plates shaken for 1 hour at RT.
Both H3 antibodies were obtained from Cell Signalling (Cat #s 4499 and 9733). The goat anti-rabbit antibody was obtained from Meso-Scale Discovery (Cat #R32AB-1).
The antibody mix was then removed and the wells washed with Blocker A. One hundred-fifty μL of freshly prepared 1×MSD Read Buffer (Meso-Scale Discovery; Cat #R927C-2) was then added to each well and the plates read on a MSD Sector 2400 Plate Reader.
Data was analyzed using Assay Assistant (Constellation Pharmaceuticals In-house product) and Activity Base (IDBS Ltd, Surrey, UK) template. Data files were imported to Assay Assistant and assay conditions were specified. A unique Analysis ID was created and the data files exported to Activity Base. An analysis template was created on Activity Base to measure dose-dependent inhibition of H3K27me3 mark and cell viability respectively. Readout of DMSO wells were used to normalize the data. Resulting curves were fitted using Activity base software Model 205 (IDBS Ltd, Surrey, UK). The data was checked for quality, validated and integrated in excel format using SARview (IDBS Ltd, Surrey, UK).

Y641N EZH2, sequence (Q15910 whole entry Y641N): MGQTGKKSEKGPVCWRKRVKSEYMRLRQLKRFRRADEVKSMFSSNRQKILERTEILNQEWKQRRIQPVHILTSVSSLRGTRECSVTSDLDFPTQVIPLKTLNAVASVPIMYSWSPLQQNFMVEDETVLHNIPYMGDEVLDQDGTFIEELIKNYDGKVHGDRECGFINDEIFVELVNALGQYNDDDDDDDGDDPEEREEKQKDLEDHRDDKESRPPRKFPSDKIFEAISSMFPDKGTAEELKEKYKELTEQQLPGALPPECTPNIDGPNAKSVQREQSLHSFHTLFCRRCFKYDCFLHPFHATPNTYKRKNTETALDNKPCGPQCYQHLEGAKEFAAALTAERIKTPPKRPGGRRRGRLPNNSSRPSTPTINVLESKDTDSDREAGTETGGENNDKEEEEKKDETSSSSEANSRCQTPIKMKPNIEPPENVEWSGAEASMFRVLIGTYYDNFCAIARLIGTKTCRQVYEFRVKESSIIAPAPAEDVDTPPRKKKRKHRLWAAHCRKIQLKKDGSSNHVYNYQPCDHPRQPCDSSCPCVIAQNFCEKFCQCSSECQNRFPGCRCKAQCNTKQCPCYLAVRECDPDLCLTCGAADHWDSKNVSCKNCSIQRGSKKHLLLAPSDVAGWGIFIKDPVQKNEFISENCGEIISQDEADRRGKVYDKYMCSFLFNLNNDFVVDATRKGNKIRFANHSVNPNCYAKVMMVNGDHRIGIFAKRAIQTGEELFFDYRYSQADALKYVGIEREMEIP
Y641N EZH2, sequence (O75530 whole entry partner): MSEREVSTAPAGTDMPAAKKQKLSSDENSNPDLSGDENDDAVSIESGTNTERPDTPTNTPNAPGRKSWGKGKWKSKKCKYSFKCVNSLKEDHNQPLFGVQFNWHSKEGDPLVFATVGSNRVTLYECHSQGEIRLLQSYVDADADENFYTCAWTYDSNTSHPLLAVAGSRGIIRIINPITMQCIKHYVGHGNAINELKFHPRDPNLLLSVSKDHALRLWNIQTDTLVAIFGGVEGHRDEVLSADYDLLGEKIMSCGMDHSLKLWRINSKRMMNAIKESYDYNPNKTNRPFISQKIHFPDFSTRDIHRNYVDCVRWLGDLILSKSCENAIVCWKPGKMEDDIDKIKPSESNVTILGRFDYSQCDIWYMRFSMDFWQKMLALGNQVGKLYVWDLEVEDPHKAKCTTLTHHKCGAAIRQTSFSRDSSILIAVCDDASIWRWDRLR
Y641N EZH2, sequence (Q15022 whole entry partner): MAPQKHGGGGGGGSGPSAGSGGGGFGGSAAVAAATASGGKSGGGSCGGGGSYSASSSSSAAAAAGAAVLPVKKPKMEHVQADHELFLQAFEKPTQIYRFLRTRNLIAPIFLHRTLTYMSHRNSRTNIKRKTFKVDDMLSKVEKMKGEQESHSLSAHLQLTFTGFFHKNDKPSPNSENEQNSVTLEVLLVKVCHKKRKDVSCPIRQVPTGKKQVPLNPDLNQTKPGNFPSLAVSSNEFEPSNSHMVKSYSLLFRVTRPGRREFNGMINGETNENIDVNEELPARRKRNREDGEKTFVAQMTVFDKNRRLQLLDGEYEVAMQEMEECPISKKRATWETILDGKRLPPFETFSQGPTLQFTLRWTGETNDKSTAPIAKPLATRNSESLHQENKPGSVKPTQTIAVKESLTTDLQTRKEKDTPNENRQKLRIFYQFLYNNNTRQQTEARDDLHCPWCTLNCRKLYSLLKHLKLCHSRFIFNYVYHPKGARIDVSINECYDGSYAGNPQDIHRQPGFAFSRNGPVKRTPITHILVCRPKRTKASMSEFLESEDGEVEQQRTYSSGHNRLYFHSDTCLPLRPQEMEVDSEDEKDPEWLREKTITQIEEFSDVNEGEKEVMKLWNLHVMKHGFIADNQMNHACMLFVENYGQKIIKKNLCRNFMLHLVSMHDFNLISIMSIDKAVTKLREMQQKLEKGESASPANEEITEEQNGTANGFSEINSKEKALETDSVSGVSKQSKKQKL

In turn, `COc1cc(C)[nH]c(=O)c1CNC(=O)c1c(C)c(C(C)c2ccccc2)n2ncccc12` (racemic) [Compound 101, (±)-N-((4-methoxy-6-methyl-2-oxo-1,2-dihydropyridin-3-yl)methyl)-6-methyl-7-(1-phenylethyl)pyrrolo[1,2-b]pyridazine-5-carboxamide] registered an IC50 against Y641N EZH2 below 0.1 µM. Further, in test [1], the EC50 is below 0.4 µM.
`COc1cc(C)[nH]c(=O)c1CNC(=O)c1c(C)c(C(C)C2CCOCC2)n2ncccc12` (racemic) [Compound 116, (±)-N-((4-methoxy-6-methyl-2-oxo-1,2-dihydropyridin-3-yl)methyl)-6-methyl-7-(1-(tetrahydro-2H-pyran-4-yl)ethyl)pyrrolo[1,2-b]pyridazine-5-carboxamide] displayed an IC50 at Y641N EZH2 below 0.1 µM. The EC50 in test [1] is below 0.4 µM.
Turning to `COc1cc(C)[nH]c(=O)c1CNC(=O)c1c(C)c(C(C)c2ccccc2)n2ncccc12` (single isomer, unassigned) [Compound 105, (R or S)-N-((4-methoxy-6-methyl-2-oxo-1,2-dihydropyridin-3-yl)methyl)-6-methyl-7-(1-phenylethyl)pyrrolo[1,2-b]pyridazine-5-carboxamide], the IC50 at Y641N EZH2 was below 0.1 µM. Besides, the EC50 in test [1] was below 0.4 µM.

By IC50 is commonly meant the point on the concentration scale where inhibition reaches its midpoint. A low value points to higher potency. A word on the EC50: it is the concentration that produces a half-maximal response.
